From article PMC9743095 (Journal of Medicinal Chemistry, 2022)
Read-outs that look alike come from different tables or passages of the source.

What was measured:
CCRF-CEM = test: cells; format: cell-based; details: Homo sapiens, 72 h; for Emax: read-out: MI%; for CC50: read-out: LC50
Experimental: (§1) The assay was contracted and carried out by WuXi AppTec (Shanghai) Co., Ltd. The tumor cell lines CCRF-CEM, HL-60, KG-1, MOLT-4, K562, MV4-11, THP-1, HEL92.1.7, NCI-H929, RPMI-8226, Jurkat, Z138, RL, HS445, HepG2, MCF-7, Bx-PC-3, HT29, MIA PaCa-2, and SW620 were seeded at cell densities of […] 10^3 cells/well in a 96-well plate the day before drug incubation. Then, the plates were incubated for 72 h with the different concentrations of compound to be tested. After the incubation period, 50 μL of MTS was added and the tumor cells were incubated for 4 h at 37 °C. The data were read and collected by a Spectra Max 340 absorbance microplate reader. The compounds were tested in duplicate with nine serial concentrations (3.16-fold titrations with 198 μM as the highest concentration), and the data were analyzed by XLfit software.

HepG2 = test: cells; format: cell-based; details: Homo sapiens; for Emax: read-out: MI%; for CC50: read-out: LC50
Experimental: as §1

MIA PaCa-2 = test: cells; format: cell-based; details: for CC50: Homo sapiens, MIA PaCa-2, 72 h, read-out: LC50; for MI%: MIA PaCa-2, maximum inhibitory effect over concentration range
Experimental: as §1

RL = test: cells; format: cell-based; details: for CC50: Homo sapiens, 72 h, read-out: LC50; for MI%: maximum inhibitory effect over concentration range
Experimental: as §1

[1] = tested on: KG1a leukemic stem cells (Lin–/CD34+/CD38–/CD123+); test: Leukemic stem cell targeting in KG1a cultures (flow cytometry); format: cell-based, human; details: 72 h, LSC vs bulk tumor
Experimental: The acute myeloid leukemia (AML) KG1a cell line was maintained in RPMI medium (Invitrogen, Paisley, U.K.) supplemented with 100 units/mL penicillin, 100 μg/mL streptomycin, and 20% FBS. […] In addition, control cultures were carried out to which no drug was added. The cells were subsequently harvested by centrifugation and were analyzed by flow cytometry using the Annexin V assay. All experiments were performed in triplicate. LC50 values (the concentration of compound required to kill 50% of the cells in culture) were calculated by nonlinear regression modeling using GraphPad Prism software and are shown as mean ± standard error of the mean (SEM) for each replicate data set.
Cells were then harvested, and KG1a cells were labeled with anti-CD34 (FITC), anti-CD38 (PE), and anti-CD123 (PERCP cy5). The subpopulation expressing a leukemic stem cell (LSC) phenotype was subsequently identified and was expressed as a percentage of all viable cells left in the culture. The percentages of stem cells remaining were then plotted on a dose–response graph, and the effects of the ProTides were compared with the parental nucleoside to determine if they preferentially target cancer stem cells

[2] = molecular target: T1, adenosine deaminase (ADA) (Bos taurus, UniProt P56658); test: Adenosine deaminase assay (UV); format: in vitro ADME, Bovine; details: 62.5 μM
T1 construct: purchased Sigma-Aldrich 59722
T1 sequence (P56658 1-363): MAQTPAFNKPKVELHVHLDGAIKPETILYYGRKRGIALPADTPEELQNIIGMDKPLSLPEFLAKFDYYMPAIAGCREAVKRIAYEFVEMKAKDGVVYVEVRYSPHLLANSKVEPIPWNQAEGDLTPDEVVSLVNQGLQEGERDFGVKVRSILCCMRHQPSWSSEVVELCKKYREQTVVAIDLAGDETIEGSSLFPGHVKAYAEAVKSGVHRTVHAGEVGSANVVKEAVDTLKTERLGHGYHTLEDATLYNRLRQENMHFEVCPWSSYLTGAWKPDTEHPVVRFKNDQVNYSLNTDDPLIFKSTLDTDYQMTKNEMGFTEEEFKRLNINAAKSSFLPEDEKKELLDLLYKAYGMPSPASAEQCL
Experimental: Bovine recombinant adenosine deaminase (ADA, EC:3.5.4.4) was purchased from Sigma (Sigma-Aldrich, product number 59722). The ADA suspension (containing >2 U/mL) was aliquoted into 55 μL portions and kept at −20 °C. Before use, a 55 μL sample was thawed and 1 mL of phosphate buffer (0.1 N, pH 7.4) was added. The suspension was filtered through a 0.2 μm filter to remove precipitates that could interfere with the absorbance measurements. The clear supernatant was used for the degradation experiments. The experiments were conducted in UV transparent cuvettes (Sigma-Aldrich, code: Z637092) using an Envision microplate reader (PerkinElmer). […] Scans of the absorption spectrum were taken between 220 and 350 nm with 2 nm resolution every 0.1 min over a period of 10 min to 12 h. One sample containing only ADA was also prepared, and this was subtracted to obtain the spectrum over time for substrates.

Plasma stability = format: in vitro ADME; details: mouse plasma
Experimental: Plasma samples (10 mL of human, beagle dog, mouse, or rats from Sera laboratories, U.K.) were treated with and without 1 μM of EHNA, after which 20 μM concentration of each drug (3′dA and ProTides) was added and incubated for 2 h at 37 °C with 5% CO2. After incubation, 100 μL of each sample was taken and 300 μL of 100% methanol was added and left on ice for 30 min. After 30 min, the mixture was centrifuged (14 000 rpm, 4 °C, 10 min), and the supernatant was transferred to new tubes and evaporated under SpeedVac. Then, the dried extract was reconstituted in 100 μL of 10% acetonitrile, then transferred to LC-MS vials, and 10 μL was injected into the UPLC-MS/MS system.

[3] = Metabolic stability in cryopreserved human hepatocytes; format: in vitro ADME; details: for hepatocyte CLint at 1 μM: pH 7.3, read-out: Clint (intrinsic clearance)
Experimental: The assay was contracted and performed by Cerep (Seattle, WA Laboratories, 15318 N. E. 95th Street Redmond, WA, 98052) according to the published procedure (Cerep ref 1432). Pooled cryopreserved hepatocytes were thawed, washed, and resuspended in Krebs–Heinslet buffer (pH 7.3). The reaction was initiated by adding the test compound (1 μM final concentration) into cell suspension and incubated in a final volume of 100 μL on a flat-bottom 96-well plate for 0 and 60 min, respectively, at 37 °C/5% CO2. The reaction was stopped by adding 100 μL of acetonitrile into the incubation mixture. Samples were then mixed gently and briefly on a plate shaker, transferred completely to a 0.8 mL V-bottom 96-well plate, and centrifuged at 2550g for 15 min at room temperature. Each supernatant (150 μL) was transferred to a clean cluster tube, followed by high-performance liquid chromatography–tandem mass spectrometry (HPLC-MS/MS) analysis on a Thermo Electron triple quadrupole system.

[4] = pH 7.3, read-out: t1/2 (half-life)

**Q.** With `Nc1ncnc2c1ncn2[C@@H]1O[C@H](CO)C[C@H]1O` [3′-dA, 3′-Deoxyadenosine, reference compound] as the compound, how does the Emax (CCRF-CEM; maximum inhibitory effect over concentration range) read?
**A.** 12%

**Q.** And the CC50 (CCRF-CEM)?
**A.** > 198 µM

**Q.** And the Emax (HepG2; 72 h, HepG2, maximum inhibitory effect over concentration range)?
**A.** 66%

**Q.** And the CC50 (HepG2; HepG2, 72 h)?
**A.** 142 µM

**Q.** And the CC50 (MIA PaCa-2)?
**A.** > 198 µM

**Q.** And the MI% (MIA PaCa-2)?
**A.** 35%

**Q.** What about the CC50 (RL) of the same compound?
**A.** > 198 µM

**Q.** And the MI% (RL)?
**A.** 17%

**Q.** What about the “effect on proportion of leukemic stem cells (LSCs)” value [1] of the same compound?
**A.** increased selectivity and potency against the putative leukemic stem cells

**Q.** What about the “time to complete metabolic deamination by ADA” value ([2]; bovine, pH 7.4) of the same compound?
**A.** up to 2 minutes

**Q.** And the half-life at 20 μM (Plasma stability)?
**A.** 25 min

**Q.** Which results are given for `CCOC(=O)CCc1ccccc1OP(=O)(N[C@@H](C)C(=O)OCc1ccccc1)OC[C@@H]1C[C@@H](O)[C@H](n2cnc3c(N)ncnc32)O1` (stereo partly drawn) [Compound 7e]?
**A.** CC50 (CCRF-CEM): 40.1 µM; Emax (CCRF-CEM): 90%; CC50 (HepG2; HepG2, 72 h): 96.1 µM; Emax (HepG2; HepG2, 72 h): 59%; CC50 (MIA PaCa-2): 12.1 µM; MI% (MIA PaCa-2): 101%; CC50 (RL): 7.26 µM; MI% (RL): 90%; hepatocyte CLint at 1 μM [3]: 41.1 µL/min/1e6 cells; half-life at 1 μM [3, 4]: 26 min; half-life at 1 h, 1 µM [3, 4]: 25.6 min

**Q.** Which CC50 (CCRF-CEM) does the source give for `C[C@H](NP(=O)(OC[C@@H]1C[C@@H](O)[C@H](n2cnc3c(N)ncnc32)O1)Oc1ccccc1)C(=O)OCc1ccccc1` (stereo partly drawn) [Compound 7a, (Rp)- and (Sp)-3′-Deoxyadenosine 5′-O-phenyl-(benzoxy-L-alaninyl)-phosphate] here?
**A.** 2.36 µM

**Q.** What about the Emax (CCRF-CEM) of the same compound?
**A.** 100%

**Q.** What about the CC50 (HepG2; HepG2, 72 h) of the same compound?
**A.** 18.7 µM

**Q.** What about the Emax (HepG2; HepG2, 72 h) of the same compound?
**A.** 76%

**Q.** And the CC50 (MIA PaCa-2)?
**A.** 6.85 µM

**Q.** What about the MI% (MIA PaCa-2) of the same compound?
**A.** 96%

**Q.** And the CC50 (RL)?
**A.** 3 µM

**Q.** What about the MI% (RL) of the same compound?
**A.** 93%

**Q.** And the “effect on proportion of leukemic stem cells (LSCs)” value [1]?
**A.** significantly reducing the LSC population to a greater extent than the parent nucleoside at concentrations above 1 μM

**Q.** And the hepatocyte CLint at 1 μM ([3]; pooled cryopreserved hepatocytes)?
**A.** 22.6 µL/min/1e6 cells

**Q.** What about the half-life at 1 h, 1 µM ([3]; pooled cryopreserved hepatocytes, pH 7.3, read-out: t1/2 (half-life)) of the same compound?
**A.** 48.1 min

**Q.** What about the “UV absorbance spectra in absence and presence of ADA” value ([2]; ADA from calf, phosphate buffer pH 7.4, 25 °C, 12 h) of the same compound?
**A.** the two lines are superimposed

**Q.** And the “shift of the maximum absorption after ADA addition (deamination)” value ([2]; up to 2 h)?
**A.** no shift of the maximum absorption at 265 nm

**Q.** What about the “concentration detected after 30 s of incubation” value (Plasma stability) of the same compound?
**A.** 0.5 ng/mL
